Results taken from patent US20190249218A1, “Method, Medium and Kit for Detecting Multiple Aminoglycoside Resistance Including 16S rRNA Methylase Mediated Resistance in Gram-Negative Bacteria” (priority 2016, published 2019).
In brackets after ≈: the same amount, converted by molar mass. Like-named read-outs stand apart in the source and are kept apart here.

Tested on: E. coli
Experiment: MIC by broth microdilution
Format: cell-based, Escherichia coli
Method: MICs of amikacin and gentamicin were determined using the broth microdilution method in cation-adjusted Mueller-Hinton broth, as recommended by the Clinical Laboratory Standard Institute (CLSI) guidelines (8). Amikacin and gentamicin sulfate (Fluorochem, Dertbyshire, UK) were tested over a range of dilutions from 0.25 to 256 μg/ml. A final inoculum of 5.10^5 CFU/ml of each strain was distributed in the 96 wells tray (Sarstedt, Ntimbrecht, Germany). All experiments were repeated in triplicate and E. coli ATCC 25922 was used as quality control. According to the CLSI breakpoints (9), Enterobacteriaceae isolates with gentamicin MICs≤4 and amikacin MICs≤16 mg/L were categorized as susceptible, while those with gentamicin MICs≥16 and amikacin MICs≥64 mg/L were categorized as resistant.
MICs of amikacin and gentamicin were determined as described above in Example 1.

[1] = isolate 92/31, E. coli, AAC(3)-IV
[2] = isolate 390, E. coli, AAC(3)-IV
[3] = isolate 1054 (first entry), E. coli, AAC(6′)-I
[4] = isolate 1054 (second entry), E. coli, AAC(6′)-I
[5] = isolate 1488, E. coli, AAC(6′)-II
[6] = isolate 4000, E. coli, APH(3′)-I + AAC(3)-V
[7] = isolate 22089, E. coli, AAC(3)-I + AAC(3)-V
[8] = isolate 122971, E. coli, ANT(2″)
[9] = isolate FR136, E. coli ATCC 25922, AG susceptible
[10] = isolate R1436, E. coli, AG susceptible
[11] = isolate R1438, E. coli, AG susceptible
[12] = isolate R2278, E. coli ATCC 35218, AG susceptible
[13] = isolate R4100, E. coli TOP10, npmA
[14] = isolate RP4, E. coli, APH(3′)-Ib
[15] = isolate pFCT1163, E. coli, AAC(6′)-Ia
[16] = isolate pFCT4392, E. coli, AAC(3)-Ia
[17] = isolate pWP701, E. coli, AAC(3)-IV

Compound: NCC[C@H](O)C(=O)N[C@@H]1C[C@H](N)[C@@H](O[C@H]2O[C@H](CN)[C@@H](O)[C@H](O)[C@H]2O)[C@H](O)[C@H]1O[C@H]1O[C@H](CO)[C@@H](O)[C@H](N)[C@H]1O [Amikacin]
- MIC (Escherichia coli, ATCC25922, isolate FR136, E. coli ATCC 25922, AG susceptible, read-out: MIC): 2 µg/mL (≈ 3.42 µM)
- MIC (Escherichia coli, ATCC25922, strain R2298, E. coli ATCC 25922, susceptible, read-out: MIC): 2 µg/mL (≈ 3.42 µM)
- MIC (Escherichia coli, ATCC35218, isolate R2278, E. coli ATCC 35218, AG susceptible, read-out: MIC): 4 µg/mL (≈ 6.83 µM)
- MIC (Escherichia coli, ATCC35218, strain R2278, E. coli ATCC 35218, susceptible, read-out: MIC): 4 µg/mL (≈ 6.83 µM)
- MIC (Escherichia coli, isolate 62Carb, E. coli, rmtB, read-out: MIC): > 256 µg/mL
- MIC (Escherichia coli, isolate 92/31, E. coli, AAC(3)-IV, read-out: MIC): 4 µg/mL (≈ 6.83 µM)
- MIC (Escherichia coli, isolate 97, E. coli, AAC(3)-IV, read-out: MIC): 2 µg/mL (≈ 3.42 µM)
- MIC (Escherichia coli, isolate 390, E. coli, AAC(3)-IV, read-out: MIC): 16 µg/mL (≈ 27.3 µM)
- MIC (Escherichia coli, isolate 1054 (first entry), E. coli, AAC(6′)-I, read-out: MIC): 8 µg/mL (≈ 13.7 µM)
- MIC (Escherichia coli, isolate 1054 (second entry), E. coli, AAC(6′)-I, read-out: MIC): 16 µg/mL (≈ 27.3 µM)
- MIC (Escherichia coli, isolate 1488, E. coli, AAC(6′)-II, read-out: MIC): 4 µg/mL (≈ 6.83 µM)
- MIC (Escherichia coli, isolate 4000, E. coli, APH(3′)-I + AAC(3)-V, read-out: MIC): 4 µg/mL
- MIC (Escherichia coli, isolate 22089, E. coli, AAC(3)-I + AAC(3)-V, read-out: MIC): 16 µg/mL
- MIC (Escherichia coli, isolate 122971, E. coli, ANT(2″), read-out: MIC): 4 µg/mL (≈ 6.83 µM)
- MIC (Escherichia coli, isolate E28, E. coli, rmtB, read-out: MIC): > 256 µg/mL
- MIC (Escherichia coli, isolate R107, E. coli, rmtB, read-out: MIC): > 256 µg/mL
- MIC (Escherichia coli, isolate R1012, E. coli, armA, read-out: MIC): > 256 µg/mL
- MIC (Escherichia coli, isolate R1436, E. coli, AG susceptible, read-out: MIC): 2 µg/mL (≈ 3.42 µM)
- MIC (Escherichia coli, isolate R1438, E. coli, AG susceptible, read-out: MIC): 2 µg/mL (≈ 3.42 µM)
- MIC (Escherichia coli, isolate R4100, E. coli TOP10, npmA, read-out: MIC): 128 µg/mL (≈ 219 µM)
- MIC (Escherichia coli, isolate RP4, E. coli, APH(3′)-Ib, read-out: MIC): 1 µg/mL (≈ 1.71 µM)
- MIC (Escherichia coli, isolate pFCT1163, E. coli, AAC(6′)-Ia, read-out: MIC): 128 µg/mL (≈ 219 µM)
- MIC (Escherichia coli, isolate pFCT4392, E. coli, AAC(3)-Ia, read-out: MIC): 1 µg/mL (≈ 1.71 µM)
- MIC (Escherichia coli, isolate pWP701, E. coli, AAC(3)-IV, read-out: MIC): 1 µg/mL (≈ 1.71 µM)
- MIC (Escherichia coli, strain 62Carb, E. coli, rmtB, read-out: MIC): > 512 µg/mL
- MIC (Escherichia coli, strain 92/31, E. coli, AAC(3)-IV, read-out: MIC): 4 µg/mL (≈ 6.83 µM)
- MIC (Escherichia coli, strain 97, E. coli, AAC(3)-IV, read-out: MIC): 2 µg/mL (≈ 3.42 µM)
- MIC (Escherichia coli, strain 390, E. coli, AAC(3)-IV, read-out: MIC): 16 µg/mL (≈ 27.3 µM)
- MIC (Escherichia coli, strain 1054a, E. coli, AAC(6′)-I, read-out: MIC): 8 µg/mL (≈ 13.7 µM)
- MIC (Escherichia coli, strain 1054b, E. coli, AAC(6′)-I, read-out: MIC): 16 µg/mL (≈ 27.3 µM)
- MIC (Escherichia coli, strain 1488, E. coli, AAC(6′)-II, read-out: MIC): 4 µg/mL (≈ 6.83 µM)
- MIC (Escherichia coli, strain 4000, E. coli, APH(3′)-I + AAC(3)-V, read-out: MIC): 4 µg/mL
- MIC (Escherichia coli, strain 22089, E. coli, AAC(3)-I + AAC(3)-V, read-out: MIC): 16 µg/mL
- MIC (Escherichia coli, strain 122971, E. coli, ANT(2″), read-out: MIC): 4 µg/mL (≈ 6.83 µM)
- MIC (Escherichia coli, strain E28, E. coli, rmtB, read-out: MIC): > 512 µg/mL
- MIC (Escherichia coli, strain R107, E. coli, rmtB, read-out: MIC): > 512 µg/mL
- MIC (Escherichia coli, strain R1012, E. coli, armA, read-out: MIC): > 512 µg/mL
- MIC (Escherichia coli, strain R1436, E. coli, susceptible, read-out: MIC): 2 µg/mL (≈ 3.42 µM)
- MIC (Escherichia coli, strain R1438, E. coli, susceptible, read-out: MIC): 2 µg/mL (≈ 3.42 µM)
- MIC (Escherichia coli, strain R4100, E. coli, npmA, read-out: MIC): 258 µg/mL (≈ 441 µM)
- MIC (Escherichia coli, strain RP4, E. coli, APH(3′)-Ib, read-out: MIC): 1 µg/mL (≈ 1.71 µM)
- MIC (Escherichia coli, strain pFCT1163, E. coli, AAC(6′)-Ia, read-out: MIC): 128 µg/mL (≈ 219 µM)
- MIC (Escherichia coli, strain pFCT4392, E. coli, AAC(3)-Ia, read-out: MIC): 1 µg/mL (≈ 1.71 µM)
- MIC (Escherichia coli, strain pWP701, E. coli, AAC(3)-IV, read-out: MIC): 1 µg/mL (≈ 1.71 µM)
- Amikacin Phenotype (isolate 62Carb, E. coli, rmtB): R (amikacin MICs≥64 mg/L were categorized as resistant)
- Amikacin Phenotype [1]: S (amikacin MICs≤16 mg/L were categorized as susceptible)
- Amikacin Phenotype (isolate 97, E. coli, AAC(3)-IV): S (amikacin MICs≤16 mg/L were categorized as susceptible)
- Amikacin Phenotype [2]: S (amikacin MICs≤16 mg/L were categorized as susceptible)
- Amikacin Phenotype [3]: S (amikacin MICs≤16 mg/L were categorized as susceptible)
- Amikacin Phenotype [4]: S (amikacin MICs≤16 mg/L were categorized as susceptible)
- Amikacin Phenotype [5]: S (amikacin MICs≤16 mg/L were categorized as susceptible)
- Amikacin Phenotype [6]: S (amikacin MICs≤16 mg/L were categorized as susceptible)
- Amikacin Phenotype [7]: S (amikacin MICs≤16 mg/L were categorized as susceptible)
- Amikacin Phenotype [8]: S (amikacin MICs≤16 mg/L were categorized as susceptible)
- Amikacin Phenotype (isolate E28, E. coli, rmtB): R (amikacin MICs≥64 mg/L were categorized as resistant)
- Amikacin Phenotype [9]: S (amikacin MICs≤16 mg/L were categorized as susceptible)
- Amikacin Phenotype (isolate R107, E. coli, rmtB): R (amikacin MICs≥64 mg/L were categorized as resistant)
- Amikacin Phenotype (isolate R262, E. coli, rmtC): R (amikacin MICs≥64 mg/L were categorized as resistant)
- Amikacin Phenotype (isolate R451, E. coli, rmtC): R (amikacin MICs≥64 mg/L were categorized as resistant)
- Amikacin Phenotype (isolate R989, E. coli, armA): R (amikacin MICs≥64 mg/L were categorized as resistant)
- Amikacin Phenotype (isolate R990, E. coli, rmtB): R (amikacin MICs≥64 mg/L were categorized as resistant)
- Amikacin Phenotype (isolate R1012, E. coli, armA): R (amikacin MICs≥64 mg/L were categorized as resistant)
- Amikacin Phenotype [10]: S (amikacin MICs≤16 mg/L were categorized as susceptible)
- Amikacin Phenotype [11]: S (amikacin MICs≤16 mg/L were categorized as susceptible)
- Amikacin Phenotype [12]: S (amikacin MICs≤16 mg/L were categorized as susceptible)
- Amikacin Phenotype [13]: R (amikacin MICs≥64 mg/L were categorized as resistant)
- Amikacin Phenotype [14]: S (amikacin MICs≤16 mg/L were categorized as susceptible)
- Amikacin Phenotype [15]: R (amikacin MICs≥64 mg/L were categorized as resistant)
- Amikacin Phenotype [16]: S (amikacin MICs≤16 mg/L were categorized as susceptible)
- Amikacin Phenotype [17]: S (amikacin MICs≤16 mg/L were categorized as susceptible)

Compound: Gentamicin
- Gentamicin Phenotype (isolate 62Carb, E. coli, rmtB): R (gentamicin MICs≥16)
- Gentamicin Phenotype [1]: R (gentamicin MICs≥16)
- MIC [1]: 16 µg/mL
- Gentamicin Phenotype (isolate 97, E. coli, AAC(3)-IV): R (gentamicin MICs≥16)
- MIC (isolate 97, E. coli, AAC(3)-IV): 32 µg/mL
- Gentamicin Phenotype [2]: R (gentamicin MICs≥16)
- MIC [3]: 8 µg/mL
- MIC [4]: 8 µg/mL
- Gentamicin Phenotype [5]: R (gentamicin MICs≥16)
- MIC [5]: 16 µg/mL
- Gentamicin Phenotype [6]: R (gentamicin MICs≥16)
- MIC [6]: 64 µg/mL
- Gentamicin Phenotype [7]: R (gentamicin MICs≥16)
- Gentamicin Phenotype [8]: R (gentamicin MICs≥16)
- Gentamicin Phenotype (isolate E28, E. coli, rmtB): R (gentamicin MICs≥16)
- Gentamicin Phenotype [9]: S (gentamicin MICs≤4)
- MIC [9]: 0.5 µg/mL
- Gentamicin Phenotype (isolate R107, E. coli, rmtB): R (gentamicin MICs≥16)
- Gentamicin Phenotype (isolate R262, E. coli, rmtC): R (gentamicin MICs≥16)
- Gentamicin Phenotype (isolate R451, E. coli, rmtC): R (gentamicin MICs≥16)
- Gentamicin Phenotype (isolate R989, E. coli, armA): R (gentamicin MICs≥16)
- Gentamicin Phenotype (isolate R990, E. coli, rmtB): R (gentamicin MICs≥16)
- Gentamicin Phenotype (isolate R1012, E. coli, armA): R (gentamicin MICs≥16)
- Gentamicin Phenotype [10]: S (gentamicin MICs≤4)
- MIC [10]: 1 µg/mL
- Gentamicin Phenotype [11]: S (gentamicin MICs≤4)
- MIC [11]: 1 µg/mL
- Gentamicin Phenotype [12]: S (gentamicin MICs≤4)
- MIC [12]: 1 µg/mL
- Gentamicin Phenotype [13]: R (gentamicin MICs≥16)
- MIC [13]: 64 µg/mL
- Gentamicin Phenotype [14]: S (gentamicin MICs≤4)
- MIC [14]: 1 µg/mL
- Gentamicin Phenotype [15]: S (gentamicin MICs≤4)
- MIC [15]: 4 µg/mL
- Gentamicin Phenotype [16]: R (gentamicin MICs≥16)
- MIC [16]: 32 µg/mL
- Gentamicin Phenotype [17]: R (gentamicin MICs≥16)
- MIC (strain 92/31, E. coli, AAC(3)-IV): 16 µg/mL
- MIC (strain 97, E. coli, AAC(3)-IV): 32 µg/mL
- MIC (strain 1054a, E. coli, AAC(6′)-I): 8 µg/mL
- MIC (strain 1054b, E. coli, AAC(6′)-I): 8 µg/mL
- MIC (strain 1488, E. coli, AAC(6′)-II): 16 µg/mL
- MIC (strain 4000, E. coli, APH(3′)-I + AAC(3)-V): 64 µg/mL
- MIC (strain R1436, E. coli, susceptible): 1 µg/mL
- MIC (strain R1438, E. coli, susceptible): 1 µg/mL
- MIC (strain R2278, E. coli ATCC 35218, susceptible): 1 µg/mL
- MIC (strain R2298, E. coli ATCC 25922, susceptible): 1 µg/mL
- MIC (strain R4100, E. coli, npmA): 258 µg/mL
- MIC (strain RP4, E. coli, APH(3′)-Ib): 2 µg/mL
- MIC (strain pFCT1163, E. coli, AAC(6′)-Ia): 4 µg/mL
- MIC (strain pFCT4392, E. coli, AAC(3)-Ia): 32 µg/mL
